Data on 6 compounds can be found in US10213434B2, “Use of factor Xa inhibitors for regulating glycemia” (VAIOMER, priority 2015, dated 2019).

Like-named read-outs stand apart in the source and are kept apart here.

For data set [1] the following is noted: low = typically inferior or equal to 20%, cited from earlier work.
Data set [2] has as its system HFD C57/BL6 mice. Description: Oral glucose tolerance test (OGTT) after 4 weeks of oral treatment in high fat diet mice. The format is in vivo. On the procedure:
FIG. 3: NC or HFD C57/BL6 mice were gavaged daily with saline or one of three doses of Rivaroxaban (1, 2.5 or 5; n=5 per group) for 4 weeks. Graphs show oral glucose tolerance test (OGTT) (1.5 g/kg) after 4 weeks of chronic treatment with Rivaroxaban. NC-NaCl: control C57/BL6 mice fed with normal chow and gavaged with saline for 4 weeks. HFD-NaCl: control C57/BL6 mice fed with high fat diet and gavaged with saline for 4 weeks. HFD-X1 mg/kg: C57/BL6 mice fed with high fat diet and gavaged with 1 mg/kg Rivaroxaban for 4 weeks. HFD-X2.5 mg/kg: C57/BL6 mice fed with high fat diet and gavaged with 2.5 mg/kg Rivaroxaban for 4 weeks. HFD-X5 mg/kg: C57/BL6 mice fed with high fat diet and gavaged with 5 mg/kg Rivaroxaban for 4 weeks.
(§1) FIG. 4: NC or HFD C57/BL6 mice were gavaged daily with saline or one of four doses of Rivaroxaban (1, 2.5 or 5; n=5 per group) for 4 weeks. Histograms show glucose intolerance corresponding index (μM/min) from 30 min to 90 min after glucose administration. NC saline: control C57/BL6 mice fed with normal chow and gavaged with saline for 4 weeks. HFD saline: control C57/BL6 mice fed with high fat diet and gavaged with saline for 4 weeks. HFD+X1: C57/BL6 mice fed with high fat diet and gavaged with 1 mg/kg Rivaroxaban for 4 weeks. HFD+X2.5: C57/BL6 mice fed with high fat diet and gavaged with 2.5 mg/kg Rivaroxaban for 4 weeks. HFD+X5: C57/BL6 mice fed with high fat diet and gavaged with 5 mg/kg Rivaroxaban for 4 weeks. Data were analyzed by either one or two-way ANOVA with Tukey's multiple comparison tests and presented as mean±S.E.M. *P<0.05, **P<0.01, ***P<0.001.
FIG. 5: NC or HFD C57/BL6 mice were gavaged daily with saline or one of […] of Rivaroxaban (1, 2.5 or 5; n=5 per group) for 4 weeks. Histograms show diabetes and glucose intolerance corresponding index (μM/min) from 30 min before to 90 min after glucose administration. NC saline: control C57/BL6 mice fed with normal chow and gavaged with saline for 4 weeks. HFD saline: control C57/BL6 mice fed with high fat diet and gavaged with saline for 4 weeks. […] Data were analyzed by either one or two-way ANOVA with Tukey's multiple comparison tests and presented as mean±S.E.M. *P<0.05, **P<0.01, ***P<0.001. […]
(§2) An Oral Glucose Tolerance Test (OGTT) was performed on 6-hfasted mice. […] Glycemia was measured with a glucometer (Roche Diagnostics) from blood collected at the tail vein 30 min before the glucose […] and 15, 30, 60, 90 and 120 min after the gavage. The glucose tolerance index was calculated by adding the glycemic values from 30 to 90 min after glucose gavage divided by the corresponding duration.
(§3) After 4 weeks of treatment the inventors measured fasting glycaemia and glucose intolerance (FIGS. 7 and 8).

In data set [3] the test system is HFD C57/BL6 mice. Description: Fasting glycemia after 4 weeks of oral treatment in high fat diet mice. It counts as in vivo. On the procedure: as §1, with “2:” for “4:”, “three” for “four”, “fasting glycemia” for “glucose intolerance corresponding index (μM/min) from 30 min to 90 min”, “4 weeks of chronic treatment with Rivaroxaban.” for “glucose administration.”, “***P<0.001. […]” for “***P<0.001.”
as §2, §3

A further data set deals with HFD mice. Description: Bacterial translocation: 16S rDNA copies in mesenteric adipose tissue of HFD mice. The format is in vivo. The settings on record: Rivaroxaban 0.2, 0.5 and 1 mg/kg oral gavage daily, 4 weeks, vs non-treated HFD mice, FIG. 6. On the procedure: To explore whether intestinal FXa inhibition regulates intestinal permeability the inventors have treated HFD mice daily during 4 weeks with 3 different doses of Rivaroxaban by oral gavage. The inventors chose low Rivaroxaban concentrations (0.2, 0.5 and 1 mg/kg) to have an intestinal effect only and avoid systemic anti-coagulation. After 4 weeks of treatment the number of 16S rDNA copies was measured in mesenteric adipose tissue in order to evaluate bacterial translocation.

The test system of another data set is mouse model of diabetes. The note with it: administered into a mouse model of diabetes; cited from earlier work.

Regarding `CC(=N)N1CC[C@H](Oc2ccc([C@H](Cc3ccc4ccc(C(=N)N)cc4c3)C(=O)O)cc2)C1` [DX-9065], the oral bioavailability entry in data set [1] was “low oral bioavailability”.
Consider `COC(=O)[C@H](Cc1cccc(C(=N)N)c1)[C@@H](C)NC(=O)c1ccc(-c2cc[n+]([O-])cc2)cc1` [Otamixaban, otamixaban], for which the oral bioavailability result in data set [1] is “low bioavailability”; in data set [1] (listed as otamixaban), “low oral bioavailability”. The “glucose intolerance (OGTT)” value with HFD C57/BL6 mice [2] (Otamixaban 1 and 5 mg/kg oral gavage, FIG. 8) was “reduces glucose intolerance”. Besides, the fasting glycaemia entry in the data set with HFD C57/BL6 mice [3] (HFD mice, Otamixaban 1 and 5 mg/kg oral gavage, FIG. 7) is reported as “reduces fasting glycaemia”.
For `O=C(NC[C@H]1CN(c2ccc(N3CCOCC3=O)cc2)C(=O)O1)c1ccc(Cl)s1` [Rivaroxaban, rivaroxaban], in the data set with HFD C57/BL6 mice [2] (5 mg/kg Rivaroxaban oral gavage, FIG. 4), the “glucose intolerance index (30 min to 90 min after glucose administration), HFD-induced increase” value is “reduced”. In addition, the “diabetes and glucose intolerance index (30 min before to 90 min after glucose administration)” value in the data set with HFD C57/BL6 mice [2] (5 mg/kg Rivaroxaban oral gavage, vs HFD saline mice, FIG. 5) was “significant reduction”. Also, the “blood glucose concentration following oral glucose challenge (OGTT)” value in the data set with HFD C57/BL6 mice [2] (oral Rivaroxaban 1, 2.5 or 5 mg/kg, vs HFD mice gavaged with saline, glucose 1.5 g/kg, FIG. 3) is on record as “reduced”. Besides, the “bacterial translocation (number of 16S rDNA copies in mesenteric adipose tissue)” value with HFD mice is recorded as “reduce bacterial translocation”. For the same compound, the antithrombotic effects result with mouse model of diabetes is on record as “displayed antithrombotic effects”. In addition, in the data set with HFD C57/BL6 mice [3] (HFD C57/BL6 mice, Rivaroxaban 1, 2.5 or 5 mg/kg oral gavage, FIG. 2), the “fasting glycemia (increase induced by high fat diet)” value is recorded as “abolished”.
Regarding `CO[C@H]1O[C@H](COS(=O)(=O)O)[C@@H](O[C@@H]2O[C@@H](C(=O)O)[C@@H](O[C@H]3O[C@H](COS(=O)(=O)O)[C@@H](O[C@@H]4O[C@H](C(=O)O)[C@@H](O[C@H]5O[C@H](COS(=O)(=O)O)[C@@H](OC)[C@H](OC)[C@H]5NC(=O)CCCCCNC(=O)CCCC[C@@H]5SC[C@@H]6NC(=O)N[C@@H]65)[C@H](OC)[C@H]4OC)[C@H](OS(=O)(=O)O)[C@H]3OS(=O)(=O)O)[C@H](OC)[C@H]2OC)[C@H](OS(=O)(=O)O)[C@H]1OS(=O)(=O)O` [idrabiotaparinux], the oral bioavailability entry in data set [1] was “low oral bioavailability”.
In the case of `CO[C@H]1O[C@H](COS(=O)(=O)O)[C@@H](O[C@@H]2O[C@@H](C(=O)O)[C@@H](O[C@H]3O[C@H](COS(=O)(=O)O)[C@@H](O[C@@H]4O[C@H](C(=O)O)[C@@H](O[C@H]5O[C@H](COS(=O)(=O)O)[C@@H](OC)[C@H](OC)[C@H]5OC)[C@H](OC)[C@H]4OC)[C@H](OS(=O)(=O)O)[C@H]3OS(=O)(=O)O)[C@H](OC)[C@H]2OC)[C@H](OS(=O)(=O)O)[C@H]1OS(=O)(=O)O` [idraparinux], in data set [1], the oral bioavailability result is “low oral bioavailability”.
Turning to enoxaparin, in data set [1], the oral bioavailability entry was “low oral bioavailability”.
